Reference: patent US20230405004A1 (NEURORIVE INC, priority 2020, published 2023)

Tests used:
[1] = test system: 5xFAD mouse; test: Morris water maze (MWM) task; assay type: in vivo; conditions: for Escape latency (Increase or decrease compared to mutated mouse vehicle group): DAY 4; for time spent in the target quadrant (Increase or decrease compared to mutated mouse vehicle group): probe test DAY 5
Procedure: The 5xFAD mouse used in this experiment was a genetically modified mouse model in which Alzheimer's disease-inducing genes were inserted. Specifically, mice over-expressed both the amyloid precursor protein with the Swedish mutation (K670N, M671L), the Florida mutation […], and the London mutation (V717I) and PS1 with the M146L and L286V mutations. The 5xFAD mouse model is the most widely used in Alzheimer's disease studies.
A Morris water maze (MWM) task was conducted to examine an effect on improving cognitive function depending on the administration of the complex composition of the present invention. The experimental equipment was comprised of a circular water tank (150 cm in diameter and 45 cm in height) filled with water having a temperature of about 22±2° C., an escape platform (10 cm in diameter and 30 cm in height), and 4 markers attached to the wall that allows the mouse to remember the location of the escape platform. The above markers remained unchanged throughout the test period. The escape platform was placed 1 cm above the water surface or 0.5 to 1.5 cm below the water surface according to the purpose of the experiment. When placed under the water surface, the water was made opaque with white water-based paint so that the escape platform was not visible to the eye. The Morris water maze was divided into four quadrants, i.e., northeast (NE), northwest (NW), southeast (SE) and southwest (SW), wherein the escape platform was placed in the center of the southwest quadrant, and the mouse started randomly from one of the others.
The escape platform was made visible on Learning DAY 0. Each mouse was trained to recognize that it was possible to escape when they swam toward the escape platform and landed thereon. On DAY 1-4, the escape platform was hidden by being placed under the water, and then the mice learned the position of the escape platform. The time limit was set to 60 seconds, and if the mouse found the escape platform within 60 seconds, it was allowed to stay on the escape platform for 5 seconds. The mice were then immediately transferred to the breeding cage. On DAY 5, the probe test was performed without the escape platform. The probe test was performed by placing the mouse in the farthest part of the quadrant where the escape platform was placed during the training day, and 60 seconds was set as the time limit. The indexes of cognitive function include the escape latency which is the time required for the mouse to find the escape platform and the time spent in the quadrant where the escape platform was placed. It was judged that the shorter the time it takes to escape (FIG. 2A) and the longer the mouse stays in the quadrant where the escape platform was placed (FIG. 2B), the better the memory and learning ability of the mouse.
Then, each group was subjected to oral administration for 4 weeks to perform the experiment.

[2] = test system: 5xFAD mouse; test: Y-maze test; assay type: in vivo; conditions: donepezil 2 mg/kg oral
Procedure: In order to test an improvement effect on short-term working memory ability according to the administration of the complex composition of the present invention, a Y-maze test was performed using the mouse model of the Alzheimer's disease described above. For the experiment, a Y-shaped maze (36 cm in width, 16 cm in length, 15 cm in height) having three arms was used, and the mice started randomly in three arms. The mice were placed in the maze, then the number of times when the center of the mouse body entered each arm and the cases in which the mice entered each arm sequentially were checked. The alternation behavior is defined as consecutive entries in three different arms without overlapping, and spontaneous alternation behavior was calculated by the following equation:
Alternation (%)=(the number of entities into all the 3 arms on consecutive/the number of entirety arms entries−2)×100
Then, each group was subjected to oral administration to perform the experiment.

COc1cc2c(cc1OC)C(=O)C(CC1CCN(Cc3ccccc3)CC1)C2 (stereo not drawn) [Donepezil, donepezil]
Escape latency (Increase or decrease compared to mutated mouse vehicle group) ([1]; donepezil 1 mg/kg oral 4 weeks): −20.15% | time spent in the target quadrant (Increase or decrease compared to mutated mouse vehicle group) ([1]; donepezil 1 mg/kg oral 4 weeks): 51.63% | Escape latency (Increase or decrease compared to mutated mouse vehicle group) ([1]; donepezil 2 mg/kg oral 4 weeks): −33.79% | time spent in the target quadrant (Increase or decrease compared to mutated mouse vehicle group) ([1]; donepezil 2 mg/kg oral 4 weeks): 148.46% | escape latency reduced by, based on the mutant mouse vehicle group ([1]; mutated mouse, donepezil 2 mg/kg alone, stated as reduction): 33.79% | Voluntary alternation behavior (Increase or decrease compared to mutated mouse vehicle group) [2]: 25.15%
